Assay [1] concerns chronic hypersensitivity after spinal cord lesion (central neuropathy). Put plainly: central neuropathy test in the rat (spinal cord lesion, vocalization threshold to von Frey hairs). The class given is in vivo. The note with it: fumarate of (Ia) 0.63 mg/rat/day. As for the experimental part: The central neuropathy test used is conducted in the rat according to a method analogous to that described by Hao and Xu in Pain 1996, 66, 279-286. The product to be tested is delivered at a constant rate by means of an osmotic pump (Alzet, model 2ML2) for 14 days. The pumps are implanted 28 days after spinal cord lesion and then explanted at the treatment's end. In this model, it was established that at 28 days post-lesion the animal is in a phase of chronic hypersensitivity which then lasts for several months. In this experiment, the hypersensitivity of the lesioned animals treated with compound (Ia) or with saline solution was measured. The pain threshold was objectified by the animal's persistent vocalization in response to a stimulation of increasing intensity in the sensitive region by means of von Frey hairs. […] The fumarate of compound (Ia) is administered at 0.63 mg/rat/day. The pumps implanted in the group of lesioned control animals release a 0.9% NaCl solution (saline)/rat/day.
The stimulation sensitivity tests by means of von Frey hairs are conducted 3 days after implantation of the osmotic pump and continue regularly for 28 days. The doses refer to the weight of non-salified compound.
The effects obtained with compound (Ia) in comparison with those of the lesioned control animals that received saline solution are represented in FIG. 3 in the appendix.

For assay [2], the system named is hypersensitivity (allodynia) after unilateral ligature of the infraorbital nerve (peripheral neuropathy). The assay can be described thus: peripheral neuropathy test in the rat (unilateral ligature of the infraorbital nerve, von Frey hair response score 0-4). The class given is in vivo. The note with it: for amplitude of decrease of perceived pain intensity compared with baclofen: after nerve lesion of peripheral origin; for analgesic effect six days after the treatment's end (day 21): day 21, 6 days after pump explantation, same doses; for amplitude of analgesia 6 days after the treatment's end compared with amplitude at the treatment's end (day 15): day 21 versus day 15; for reduction of hypersensitivity (allodynia) to stimulation during treatment, versus saline: osmotic pump 14 days implanted 24 hours before lesion, (Ia) 0.63, (Ib) 0.16, morphine 5, baclofen 1.06 mg/rat/day, days 4-15. On the procedure:
The peripheral neuropathy test used was conducted in the rat according to a method analogous to that described by Vos in J. Neurosci. 1994, 14, 2708-2723. The product to be tested is delivered at a constant rate (0.12 ml/day) by means of an osmotic pump (Alzet, model 2ML2) for 14 days. The pumps are implanted 24 hours before lesion (unilateral ligature of the infraorbital nerve) and then explanted at the treatment's end. The pumps are implanted subcutaneously via a transverse incision made in the dorsal skin of the rat. Evaluation of the intensity of perceived pain is objectified from a series of behavioral signs observed in response to mechanical stimulation of the region lesioned by means of von Frey hairs. Stimulations are applied in order of increasing intensity. Intensity of perceived pain is evaluated from the following criteria: 0, no response by the animal; 1, detection (i.e., the rat turns its head towards the object used for stimulation); 2, withdrawal (i.e., the rat turns away or makes a withdrawal movement with its head to avoid the object used for stimulation); 3, flight or attack (i.e., the rat avoids the object by moving its body or deliberately attacks the object used for stimulation); 4, face rubbing (i.e., the rat rubs the area of stimulation three times in succession). The response level by the non-lesioned animals was 0 or 1.
The fumarate of compound (Ia) is administered at 0.63 mg/rat/day; the glycolate of compound (Ib) at 0.16 mg/rat/day; morphine hydrochloride at 5 mg/rat/day, and baclofen at 1.06 mg/rat/day. All the compounds are administered in solution in distilled water. The pumps implanted in the control animals release a 0.9% NaCl solution (saline)/rat/day; the doses refer to the weight of non-salified compound.
The effects obtained with compounds (Ia), (Ib), and the products chosen as references are represented in FIGS. 4 to 8 in the appendix. FIGS. 4 to 7 represent the analgesic effects of the various products evaluated at days 4, 6, 8, 11, and 13 of treatment and 1 day following explantation of the pump (day 15). FIG. 8 represents the analgesic effects of the various products measured at day 21, which is 6 days following the treatment's end.
The individual scores of each animal represent the average (±standard error) obtained after application of the von Frey hairs. The comparison of the results between the various groups as well as the progress of the values obtained over time are performed using an analysis of variance test (ANOVA), followed by a Dunnett's multiple comparison test.

For assay [3] the test system is unchanged. The note with it: rat infraorbital nerve ligature model; cited from earlier work.

With `Cc1ccc(CNCC2(F)CCN(C(=O)c3ccc(F)c(Cl)c3)CC2)nc1` [Compound (Ia)], the “analgesia after treatment is interrupted (curative phase)” value in assay [1] (after day 15, 14 days following pump explantation) is “analgesia persists and is maintained at the same level as that attained at the treatment's end”. Also, the “symptomatic analgesia (vocalization threshold to von Frey stimulation) during treatment, versus saline” value in assay [1] (osmotic pump 14 days implanted 28 days after spinal cord lesion) is on record as “statistically significant as of the tenth day of treatment”. In assay [2], the “amplitude of decrease of perceived pain intensity compared with baclofen” value is given as “at least equivalent”; the “analgesic effect six days after the treatment's end (day 21)” value (“analgesic effect six days” below) is reported as “continued to show a significant analgesic effect”; the “amplitude of analgesia 6 days after the treatment's end compared with amplitude at the treatment's end (day 15)” value is “not statistically different”; the “reduction of hypersensitivity (allodynia) to stimulation during treatment, versus saline” value (shortened to “reduction of hypersensitivity”) was “significantly after day 11”.

Consider `CNc1nc(CNCC2(F)CCN(C(=O)c3ccc(F)c(Cl)c3)CC2)ccc1C` [Compound (Ib)], for which, in assay [2], the “amplitude of decrease of perceived pain intensity compared with baclofen” value is “at least equivalent”; the “analgesic effect six days” value is on record as “continued to show a significant analgesic effect”; the “amplitude of analgesia 6 days after the treatment's end compared with amplitude at the treatment's end (day 15)” value is reported as “not statistically different”; the “reduction of hypersensitivity” value is “significantly only after day 13”.

On to `NCC(CC(=O)O)c1ccc(Cl)cc1` (stereo not drawn) [baclofen, reference compound], for which the “activity in the peripheral neuropathy model as established previously” value in assay [3] is “agent with the highest activity”. Also, in assay [2], the “analgesic effect six days” value is recorded as “disappeared completely” and the “reduction of hypersensitivity” value is recorded as “significant analgesic effect after day 11”.

Regarding `CN1CC[C@]23c4c5ccc(O)c4O[C@H]2[C@@H](O)C=C[C@H]3[C@H]1C5` [morphine, reference compound], in assay [2], the “analgesic effect six days” value is recorded as “disappeared completely” and the “reduction of hypersensitivity” value is “inactive”.
